Consider 9 compounds from ChEMBL document CHEMBL1128120, “Phosphorous acid analogs of L-680,833, a potent monocyclic -lactam inhibitor of human leukocyte elastase” (Bioorg Med Chem Lett, 1995).

For experiment [1], the target named is T1, Neutrophil elastase (Homo sapiens) (UniProt P08246).
T1 sequence (whole entry): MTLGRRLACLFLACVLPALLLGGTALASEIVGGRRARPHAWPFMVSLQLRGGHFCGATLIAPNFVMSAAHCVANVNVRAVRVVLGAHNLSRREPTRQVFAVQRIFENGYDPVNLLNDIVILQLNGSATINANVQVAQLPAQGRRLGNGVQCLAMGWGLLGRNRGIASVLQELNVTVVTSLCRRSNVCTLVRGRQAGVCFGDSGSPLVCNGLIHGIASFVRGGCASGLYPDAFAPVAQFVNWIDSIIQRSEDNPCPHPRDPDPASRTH
Put plainly: (§1) In vitro inhibition of Human Leukocyte Elastase enzyme in whole blood stimulated with A-23187 (at dose 3 uM). The class given is functional, tissue-based.

Experiment [2] has as its target T1, Neutrophil elastase (Homo sapiens). Put plainly: Compound was tested for inhibition of Human Leukocyte Elastase enzyme, expressed in term of bimolecular rate constant (Kinact/Ki).
Experiment [3] relates to Cricetinae gen. sp. Put plainly: In vivo inhibition in HLE-induced hamster lung hemorrhage when given orally at 10 mg/kg, 2 hr before challenge by HLE. Format: functional. The following applies: route oral.
For experiment [4], the target named is T2, Neutrophil elastase (Homo sapiens, UniProt P08246).
T2 sequence (P08246 whole entry): T1 sequence (whole entry)
The experiment is described as §1. Format: functional, tissue-based.

For experiment [5], the system named is Cricetinae gen. sp. Nature of the experiment: Effective dose required to in vivo inhibition in HLE-induced hamster lung hemorrhage when given orally 5 hr before the enzyme. Format: functional. As to conditions: po.

The structures appear in SMILES notation.

As usually defined, the inhibition is the drop in the measured response relative to a control, in per cent. For orientation: inhibition in vivo means the change of the read-out against control, counted positive when it falls. Take `C=CCP(=O)(O)Cc1ccc(O[C@@H]2N(C(=O)N[C@H](CCC)c3ccc(C)cc3)C(=O)C2(CC)CC)cc1`: in experiment [1], the inhibition is 48%. Besides, the Ratio in experiment [2] amounted to 740000 M⁻¹ s⁻¹. Further, in experiment [3], the inhibition in vivo at 10 mg/kg amounted to 19%.

The compound `CCC[C@@H](NC(=O)N1C(=O)C(CC)(CC)[C@@H]1Oc1ccc(CP(=O)(O)c2ccccc2)cc1)c1ccc(C)cc1` came in with an inhibition in experiment [1] of 34%. For the same compound, in experiment [2], the Ratio was found to be 1.17e+06 M⁻¹ s⁻¹. Besides, the inhibition in vivo at 10 mg/kg in experiment [3] came to 27%.

With `CCC[C@@H](NC(=O)N1C(=O)C(CC)(CC)[C@@H]1Oc1ccc(CP(C)(=O)O)cc1)c1ccc(C)cc1`, the inhibition in experiment [1] stood at 55%. Moreover, the Ratio in experiment [2] was 417000 M⁻¹ s⁻¹. Also, the inhibition in vivo at 10 mg/kg in experiment [3] is -59%.

For the compound `CCC[C@@H](NC(=O)N1C(=O)C(CC)(CC)[C@@H]1Oc1ccc(CP(=O)(O)CCC)cc1)c1ccc(C)cc1`, the inhibition in experiment [1] stood at 50%. In experiment [2], the Ratio was determined as 906000 M⁻¹ s⁻¹. Also, the inhibition in vivo at 10 mg/kg in experiment [3] is 15%.

For the compound `C=CCP(=O)(Cc1ccc(O[C@@H]2N(C(=O)N[C@H](CCC)c3ccc(C)cc3)C(=O)C2(CC)CC)cc1)OCC` (stereo not given in full), the inhibition in experiment [1] was 51%. Also, the Ratio in experiment [2] is 1.33e+06 M⁻¹ s⁻¹. In addition, the inhibition in vivo at 10 mg/kg in experiment [3] amounted to 64%.

As to `CCC[C@@H](NC(=O)N1C(=O)C(CC)(CC)[C@@H]1Oc1ccc(CP(=O)(O)O)cc1)c1ccc(C)cc1`, the inhibition in experiment [1] came out at 61%. Moreover, the Ratio in experiment [2] is 217000 M⁻¹ s⁻¹. Also, the inhibition in vivo at 10 mg/kg in experiment [3] was found to be 17%.

The compound `CCC[C@@H](NC(=O)N1C(=O)C(CC)(CC)[C@@H]1Oc1ccc(CP(=O)(OCC)OCC)cc1)c1ccc(C)cc1` had an inhibition in experiment [1] of 63%. The Ratio in experiment [2] was 1.16e+06 M⁻¹ s⁻¹. Moreover, the inhibition in vivo at 10 mg/kg in experiment [3] was found to be 15%.

Regarding `CCC[C@@H](NC(=O)N1C(=O)C(CC)(CC)[C@@H]1Oc1ccc(CP(=O)(CCC)OC(OC(=O)CC)C(C)C)cc1)c1ccc(C)cc1` (stereo not given in full), the Ratio in experiment [2] stood at 1.05e+06 M⁻¹ s⁻¹.

What is called IC50 is the concentration at which inhibition is half-maximal. Low values mean greater potency, high ones weaker potency. For orientation: ED50 means the midpoint of the dose-response relation. Turning to `CCC[C@@H](NC(=O)N1C(=O)C(CC)(CC)[C@@H]1Oc1ccc(CC(=O)O)cc1)c1ccc(C)cc1`, half-maximal inhibition in experiment [4] (IC50) required 9 µM. In addition, the Ratio in experiment [2] is 622000 M⁻¹ s⁻¹. The compound also gave an ED50 in experiment [5] of 1.5 mg/kg.
